{"source": "patent US10517842B2", "about": "“Methods of modulating miRNA levels and compositions for use in the same” (Los Angeles Biomedical Research Institute at Harbor-UCLA …, priority 2017, dated 2019)", "type_in_all_cases": "cell-based, human", "key": {"miR-29c": {"system": "miR-29c", "experiment": "Quantitative RT-PCR (TaqMan miRNA assay), cellular and secreted miRNA in LSMC", "conditions": "for miR-29c level: 48 hours, LSMC; for expression of miR-29c: primary leiomyoma cells", "method": "(§1) Total RNA was extracted from LSMC using RNAzol (GeneCopoeia, Rockville, Md.) and their quantity and quality was determined (ND-1000 Spectrophotometer, NanoDrop Technologies, Wilmington, Del.) as previously described (Chuang & Khorram, “miR-200c Regulates IL8 Expression by Targeting IKBKB: A Potential Mediator of Inflammation in Leiomyoma Pathogenesis,” PloS one (2014) 9:e95370). For medium miRNA extraction, 5 pg of synthetic miR-1 from Caenorhabditis elegans (cel-miR-1) was added as a spike-in control for purification efficiency. Subsequently, 2 μg or 10 ng (for miRNA) was reverse transcribed using random primers for CCND1, CDK2, COL1A1, COL3A1, TGF-β3, DNMT1 and EZH2 or specific primers for miR-29c and miR-200c according to the manufacturer's guidelines (Applied Biosystems, Carlsbad, Calif.). Quantitative RT-PCR was carried out using SYBR gene expression master mix or TaqMan miRNA expression assays (Applied Biosystems). Reactions were incubated for 10 min at 95° C. followed by 40 cycles for 15 seconds at 95° C. and 1 min at 60° C. The level of mRNAs and expression of cellular and secreted miRNA was determined using the Invitrogen StepOne System with 18S, RNU6B and cel-miR-1 used for normalization respectively. All reactions were run in triplicate and relative expression was analyzed with the comparative cycle threshold method (2^−ΔΔCT) according to the manufacturer (Applied Biosystems). Values were expressed as fold change compared to the control group."}, "3′UTR of CDK2": {"system": "3′UTR of CDK2", "experiment": "3′UTR luciferase reporter assay in LSMC", "conditions": "primary leiomyoma cells"}, "3′UTR of COL3A1": {"system": "3′UTR of COL3A1", "experiment": "3′UTR luciferase reporter assay in LSMC", "conditions": "primary leiomyoma cells", "method": "LSMC were seeded at 3.5×10^4 cells/well in 6-well plates and at sub-confluence were treated with Tranilast (200 μM) or DMSO as control for 48 hrs. Tranilast and DMSO-treated cells were then transfected with luciferase reporter plasmids (1 μg/well) containing 3′ UTR sequences for COL3A1 or CDK2 (GeneCopoeia, Inc., Rockville, Md.) using PureFection transfection reagent (System Biosciences, Inc., Palo Alto, Calif.). After 48 hrs of transfection Firefly and Renilla luciferase activities were measured using the Dual-Luciferase Reporter Assay System (Promega). Firefly luciferase activity was normalized to Renilla luciferase activity. The level of induction was reported as mean±SEM of three experiments and compared with a ratio in cells treated with DMSO independently set as 1.\nFIG. 10A: The relative luciferase activity in LSMC treated with Tranilast (200 μM) or DMSO as control for 48 hrs prior to transfection with Renilla and Firefly luciferase reporter plasmids carrying a 3′UTR fragment of COL3A1, CDK2 or IL8 and incubated with Tranilast (200 μM) or DMSO containing medium after transfection for another 48 hrs. The relative luciferase activity is presented as the ratio of Firefly:Renilla as compared to DMSO which was independently set as 1. The results are presented as mean±SEM of at least three sets of independent experiments using LSMC isolated from 3 patients. FIG. 10B: Protein expression of COL3A1 and CDK2 was determined after transfection of anti-miR scrambled oligonucleotides (aNC) or anti-miR-29c oligonucleotides (a29c) in LSMC for 72 hrs with DMSO or Tranilast (200 μM) treatment for the last 48 hrs. GAPDH was used as loading control. The result is one representative of at least three sets of independent experiments using LSMC isolated from 3 patients. FIG. 10C: The bar graph presented the relative band densities as mean±SEM of at least three independent experiments. Inhibition of protein expression by Tranilast treatment was calculated relative to changes in corresponding DMSO controls in cells transfected with aNC or anti-miR-29c."}, "miR-200c": {"system": "miR-200c", "experiment": "Quantitative RT-PCR (TaqMan miRNA assay), cellular and secreted miRNA in LSMC", "conditions": "primary leiomyoma cells", "method": "as §1"}}, "data": [{"compound": "CC(=O)Oc1ccccc1C(=O)O", "note": "[Aspirin]", "values": [{"measurement": "miR-29c level", "setting": "miR-29c; Aspirin 10 mM", "value": "not affected"}]}, {"compound": "O=C(CC1NCCCC1O)Cn1cnc2cc(Br)c(Cl)cc2c1=O", "note": "(centres unmarked) [Halofuginone]", "values": [{"measurement": "activity of luciferase reporter containing 3′UTR of CDK2", "setting": "3′UTR of CDK2; Halofuginone 200 nM", "value": "inhibit"}, {"measurement": "activity of luciferase reporter containing 3′UTR of COL3A1", "setting": "3′UTR of COL3A1; Halofuginone 200 nM", "value": "inhibit"}, {"measurement": "expression of miR-29c", "setting": "miR-29c; Halofuginone 200 nM", "value": "induce"}, {"measurement": "expression of miR-200c", "setting": "miR-200c; Halofuginone 200 nM", "value": "induce"}]}, {"compound": "Cc1ccc(=O)n(-c2ccccc2)c1", "note": "[Pirfenidone]", "values": [{"measurement": "activity of luciferase reporter containing 3′UTR of CDK2", "setting": "3′UTR of CDK2; Pirfenidone 0.25 mg/ml", "value": "inhibit"}, {"measurement": "activity of luciferase reporter containing 3′UTR of COL3A1", "setting": "3′UTR of COL3A1; Pirfenidone 0.25 mg/ml", "value": "inhibit"}, {"measurement": "expression of miR-29c", "setting": "miR-29c; Pirfenidone 0.25 mg/ml", "value": "induce"}, {"measurement": "expression of miR-200c", "setting": "miR-200c; Pirfenidone 0.25 mg/ml", "value": "induce"}]}, {"compound": "CCCCc1oc2ccccc2c1C(=O)c1cc(I)c(OCCN(CC)CC)c(I)c1", "note": "[amiodarone]", "values": [{"measurement": "miR-29c level", "setting": "miR-29c; amiodarone 1 μM", "value": "not affected"}]}, {"compound": "bleomycin", "values": [{"measurement": "miR-29c level", "setting": "miR-29c; bleomycin 10 μg/ml", "value": "not affected"}]}]}
